Data set [1] can be described thus: Solvate crystal growth in seeded solutions of Insecticide A in 2-heptanone/Solvent A mixtures (Example 2). The data set is classed as physicochemical. As to conditions: seeded with Solvent A solvate crystals, 22° C., one month. The method, then: Four solutions of 2-heptanone in Solvent A were prepared by mixing 1 part by weight of 2-heptanone with 2, 4, 6 and 8 parts by weight, respectively, of solvent A. Then Insecticide A was dissolved in each of these solutions by slowly adding 4.98 parts by weight of Insecticide A to well agitated 63.92 parts by weight of the respective solution at room temperature. It typically took 1 to 3 hours for complete dissolution. After Insecticide A was fully dissolved, each of the four samples was seeded with the Solvent A solvate crystals of Insecticide A prepared in Example 1. Then the four samples were kept at 22° C. for one month and afterwards were visually inspected for solvate crystal growth.

Data set [2] in a line: Precipitation from a solution of Insecticide A in Solvent A on continued agitation at room temperature (Example 1, comparative). The data set is classed as physicochemical. How it is done: A solution of Insecticide A (pyripyropene derivative I) in Solvent A was prepared by slowly adding 4.98 parts by weight of Insecticide A to well agitated 63.92 parts by weight of Solvent A at room temperature. It typically took 1 to 3 hours for complete dissolution depending on the addition rate of Insecticide A and on the mode of agitation. After the agitation had been continued for additional approximately 12 hours the clear solution started to turn cloudy, indicating the precipitation of Solvent A solvate crystals of Insecticide A. Microscopy analysis confirmed that the precipitation was indeed crystalline.

Results on one compound are retold here after US20150031535A1, “Liquid concentrate formulation containing a pyripyropene insecticide III” (BASF SE, priority 2012, published 2015).

Each structure is given as a SMILES string.

In the case of `C[C@]1(COC(=O)C2CC2)[C@@H]2C[C@H](O)[C@@]3(C)Oc4cc(-c5cccnc5)oc(=O)c4[C@H](O)[C@@H]3[C@@]2(C)CC[C@@H]1OC(=O)C1CC1` [Insecticide A], the “solvate crystal growth (visual inspection)” value in data set [1] (2-heptanone to Solvent A ratio 1:2) was “no crystal growth was observed”; in data set [1] (2-heptanone to Solvent A ratio 1:4), “no crystal growth was observed”; in data set [1] (2-heptanone to Solvent A ratio 1:6), “crystal growth was detected”; in data set [1] (2-heptanone to Solvent A ratio 1:8) it was “crystal growth was detected”. Further, the “microscopy analysis of the precipitation” value in data set [2] (4.98 parts Insecticide A in 63.92 parts Solvent A) was “crystalline”. Further, the “additional agitation time after which the clear solution started to turn cloudy (precipitation of Solvent A solvate crystals)” value in data set [2] (4.98 parts by weight Insecticide A in 63.92 parts by weight Solvent A, after complete dissolution) is “approximately 12 hours”.
